{
  "source": "patent US20140038181A1",
  "about": "“CHEMICALLY SUBSTITUTED THERMOSENSITIVE PROBES AND COFACTORS FOR HOT START LIGATION” (TRILINK BIOTECHNOLOGIES, priority 2011, published 2014)",
  "assay": "Thermal conversion of 2′,3′-substituted ATP to unsubstituted ATP in ligase buffer at 95° C. (HPLC)",
  "assay_type": "physicochemical",
  "settings": "for Concentration of unsubstituted ATP: 1 mM 2′,3′-substituted ATP",
  "procedure": "The reactions were monitored by analysis of the aliquot of incubated mixture by reverse-phase and anion-exchange HPLC.",
  "data": [
    {"compound": "CC(C)(C)OCCO[C@@H]1[C@H](OCCOC(C)(C)C)[C@@H](COP(=O)(O)OP(=O)(O)OP(=O)(O)O)O[C@H]1n1cnc2c(N)ncnc21", "note": "[2′,3′-TBE-substituted ATP, 2′,3′-O-bis-[2-(tert-butoxy)]ethyl-adenosine-5′-triphosphate]", "values": [
      {"measurement": "Concentration of unsubstituted ATP", "setting": "ligase buffer pH 7.5, 5 min", "result": 569, "unit": "µM"},
      {"measurement": "Concentration of unsubstituted ATP", "setting": "ligase buffer pH 7.5, 10 min", "result": 857, "unit": "µM"},
      {"measurement": "Concentration of unsubstituted ATP", "setting": "ligase buffer pH 7.5, 20 min", "result": 970, "unit": "µM"},
      {"measurement": "cofactor molecules converted to the unmodified ATP", "setting": "2 min, ligation buffer", "result": "about 20%"},
      {"measurement": "conversion to unmodified ATP", "setting": "20 min, ligation buffer", "result": "more than 85%"}
    ]}
  ]
}
